Measured values as given in PubChem BioAssay AID1745844 (Carcinogenic Potency Database (CPDB), 2022).
Calls of active or inactive are those of the source. How the calls were made is not given here.

Tested on: rodent lifetime carcinogenesis bioassay, tumor incidence TD50
Assay: chronic cancer bioassays in animals – CPDB, compiled studies (AID 1745844)

CCN(Cc1cccc(S(=O)(=O)[O-])c1)c1ccc(C(=C2C=CC(=[N+](C)C)C=C2)c2ccc(N(CC)Cc3cccc(S(=O)(=O)O)c3)cc2)cc1
carcinogen call (mouse, strain ASH-CS1, females, in feed, site: liver, lesion: one or several types, types not named, dosed 80 weeks, study length 80 weeks): negative (inactive)
TD50 (mouse, strain ASH-CS1, females, in feed, site: lung, lesion: adenoma, dosed 80 weeks, study length 80 weeks): 1910 mg/kg/day (inactive)
carcinogen call (mouse, strain ASH-CS1, males, in feed, site: liver, lesion: one or several types, types not named, dosed 80 weeks, study length 80 weeks): negative (inactive)
TD50 (mouse, strain ASH-CS1, males, in feed, site: lung, lesion: adenocarcinoma, dosed 80 weeks, study length 80 weeks): 4660 mg/kg/day (inactive)
carcinogen call (mouse, strain ASH-CS1, males, in feed, site: lung, lesion: adenoma, dosed 80 weeks, study length 80 weeks): negative (inactive)
TD50 (rat, strain Sprague-Dawley albino, females, in feed, site: any site (literature study), lesion: malignant tumor, dosed 52 weeks, study length 52 weeks): 568 mg/kg/day
TD50 (rat, strain Sprague-Dawley albino, females, in feed, site: any site (literature study), lesion: several types, types named in the paper, dosed 52 weeks, study length 52 weeks): 660 mg/kg/day
TD50 (rat, strain Sprague-Dawley albino, females, in feed, site: ear duct, lesion: carcinoma, dosed 52 weeks, study length 52 weeks): 1600 mg/kg/day
TD50 (rat, strain Sprague-Dawley albino, females, in feed, site: mammary gland, lesion: carcinoma, dosed 52 weeks, study length 52 weeks): 1140 mg/kg/day
TD50 (rat, strain Sprague-Dawley, females, in feed, site: any site (literature study), lesion: several types, types named in the paper, dosed 51 weeks, study length 52 weeks): 418 mg/kg/day
TD50 (rat, strain Sprague-Dawley, females, in feed, site: mammary gland, lesion: carcinoma, dosed 51 weeks, study length 52 weeks): 573 mg/kg/day
TD50 (rat, strain Sprague-Dawley, females, in feed, site: skin, lesion: squamous-cell carcinoma, dosed 51 weeks, study length 52 weeks): 1100 mg/kg/day

CC(=O)[O-].CC(=O)[O-].[Cd+2]
carcinogen call (mouse, strain Charles River CD1, females, in drinking water, site: any site (literature study), lesion: one or several types, types not named, dosed 130 weeks, study length 130 weeks): negative (inactive)
carcinogen call (mouse, strain Charles River CD1, females, in drinking water, site: lung, lesion: carcinoma, dosed 130 weeks, study length 130 weeks): negative (inactive)
carcinogen call (mouse, strain Charles River CD1, males, in drinking water, site: any site (literature study), lesion: one or several types, types not named, dosed 120 weeks, study length 120 weeks): negative (inactive)
carcinogen call (mouse, strain Charles River CD1, males, in drinking water, site: lung, lesion: carcinoma, dosed 120 weeks, study length 120 weeks): negative (inactive)
TD50 (rat, strain Long-Evans BLU:(LE), both sexes, in drinking water, site: any site (literature study), lesion: malignant tumor, dosed 175 weeks, study length 175 weeks): 5.1 mg/kg/day (inactive)
TD50 (rat, strain Long-Evans BLU:(LE), both sexes, in drinking water, site: any site (literature study), lesion: one or several types, types not named, dosed 175 weeks, study length 175 weeks): 1.81 mg/kg/day (inactive)
TD50 (rat, strain Long-Evans BLU:(LE), both sexes, in drinking water, site: liver, lesion: one or several types, types not named, dosed 175 weeks, study length 175 weeks): 37.7 mg/kg/day (inactive)

c1ccc2n[nH]nc2c1
TD50 (mouse, strain B6C3F1, females, in feed, site: any site (literature study), lesion: several types, types named in the paper, dosed 104 weeks, study length 106 weeks): 18900 mg/kg/day
TD50 (mouse, strain B6C3F1, females, in feed, site: lung, lesion: alveolar/bronchiolar adenoma + alveolar/bronchiolar carcinoma, dosed 104 weeks, study length 106 weeks): 3890 mg/kg/day
TD50 (mouse, strain B6C3F1, females, in feed, site: lung, lesion: alveolar/bronchiolar carcinoma, dosed 104 weeks, study length 106 weeks): 4390 mg/kg/day
carcinogen call (mouse, strain B6C3F1, males, in feed, site: any site (literature study), lesion: several types, types named in the paper, dosed 104 weeks, study length 106 weeks): negative (inactive)
TD50 (rat, strain Fischer 344, females, in feed, site: brain, lesion: glioma, NOS, dosed 78 weeks, study length 105 weeks): 20300 mg/kg/day
TD50 (rat, strain Fischer 344, females, in feed, site: liver, lesion: hepatocellular adenoma + hepatocellular carcinoma + neoplastic nodule, dosed 78 weeks, study length 105 weeks): 10100 mg/kg/day
carcinogen call (rat, strain Fischer 344, males, in feed, site: brain, lesion: glioma, NOS + oligodendroglioma, dosed 78 weeks, study length 104 weeks): a
TD50 (rat, strain Fischer 344, males, in feed, site: liver, lesion: hepatocellular adenoma + hepatocellular carcinoma + neoplastic nodule, dosed 78 weeks, study length 104 weeks): 2720 mg/kg/day
TD50 (rat, strain Fischer 344, males, in feed, site: liver, lesion: neoplastic nodule, dosed 78 weeks, study length 104 weeks): 2720 mg/kg/day

Cc1c([N+](=O)[O-])c(C)c([N+](=O)[O-])c(C(C)(C)C)c1[N+](=O)[O-]
TD50 (mouse, strain B6C3F1, females, in feed, site: Harderian gland, lesion: several types, types named in the paper, dosed 80 weeks, study length 90 weeks): 2250 mg/kg/day
TD50 (mouse, strain B6C3F1, females, in feed, site: all sites, lesion: lymphoma, dosed 80 weeks, study length 90 weeks): 1300 mg/kg/day
TD50 (mouse, strain B6C3F1, females, in feed, site: any site (literature study), lesion: malignant tumor, dosed 80 weeks, study length 90 weeks): 418 mg/kg/day
TD50 (mouse, strain B6C3F1, females, in feed, site: liver, lesion: hepatocellular adenoma, dosed 80 weeks, study length 90 weeks): 234 mg/kg/day
TD50 (mouse, strain B6C3F1, females, in feed, site: liver, lesion: hepatocellular carcinoma, dosed 80 weeks, study length 90 weeks): 2190 mg/kg/day
TD50 (mouse, strain B6C3F1, females, in feed, site: liver, lesion: several types, types named in the paper, dosed 80 weeks, study length 90 weeks): 203 mg/kg/day
TD50 (mouse, strain B6C3F1, females, in feed, site: lung, lesion: adenoma, dosed 80 weeks, study length 90 weeks): 1630 mg/kg/day
TD50 (mouse, strain B6C3F1, females, in feed, site: lung, lesion: carcinoma, dosed 80 weeks, study length 90 weeks): 6650 mg/kg/day
TD50 (mouse, strain B6C3F1, females, in feed, site: lung, lesion: several types, types named in the paper, dosed 80 weeks, study length 90 weeks): 1300 mg/kg/day
TD50 (mouse, strain B6C3F1, females, in feed, site: uterus, lesion: endometrial stromal sarcoma, dosed 80 weeks, study length 90 weeks): 533 mg/kg/day
TD50 (mouse, strain B6C3F1, males, in feed, site: Harderian gland, lesion: adenoma, dosed 80 weeks, study length 90 weeks): 383 mg/kg/day
TD50 (mouse, strain B6C3F1, males, in feed, site: Harderian gland, lesion: several types, types named in the paper, dosed 80 weeks, study length 90 weeks): 425 mg/kg/day
TD50 (mouse, strain B6C3F1, males, in feed, site: any site (literature study), lesion: malignant tumor, dosed 80 weeks, study length 90 weeks): 334 mg/kg/day
TD50 (mouse, strain B6C3F1, males, in feed, site: liver, lesion: hepatocellular adenoma, dosed 80 weeks, study length 90 weeks): 232 mg/kg/day
TD50 (mouse, strain B6C3F1, males, in feed, site: liver, lesion: hepatocellular carcinoma, dosed 80 weeks, study length 90 weeks): 313 mg/kg/day
TD50 (mouse, strain B6C3F1, males, in feed, site: liver, lesion: several types, types named in the paper, dosed 80 weeks, study length 90 weeks): 92.1 mg/kg/day
TD50 (mouse, strain B6C3F1, males, in feed, site: lung, lesion: adenoma, dosed 80 weeks, study length 90 weeks): 1200 mg/kg/day

CC(=O)OC[C@H]1O[C@@](COC(=O)C(C)C)(O[C@H]2O[C@H](COC(C)=O)[C@@H](OC(=O)C(C)C)[C@H](OC(=O)C(C)C)[C@H]2OC(=O)C(C)C)[C@@H](OC(=O)C(C)C)[C@@H]1OC(=O)C(C)C
carcinogen call (mouse, strain B6C3F1, females, in feed, site: any site (literature study), lesion: several types, types named in the paper, dosed 104 weeks, study length 104 weeks): negative (inactive)
carcinogen call (mouse, strain B6C3F1, males, in feed, site: any site (literature study), lesion: several types, types named in the paper, dosed 104 weeks, study length 104 weeks): negative (inactive)
TD50 (rat, strain Fischer 344, females, in feed, site: any site (literature study), lesion: several types, types named in the paper, dosed 52 weeks, study length 52 weeks): 3250 mg/kg/day (inactive)
carcinogen call (rat, strain Fischer 344, females, in feed, site: any site (literature study), lesion: several types, types named in the paper, dosed 104 weeks, study length 104 weeks): negative (inactive)
TD50 (rat, strain Fischer 344, females, in feed, site: liver, lesion: hepatocellular adenoma, dosed 52 weeks, study length 52 weeks): 3250 mg/kg/day (inactive)
carcinogen call (rat, strain Fischer 344, males, in feed, site: any site (literature study), lesion: several types, types named in the paper, dosed 52 weeks, study length 52 weeks): negative (inactive)
carcinogen call (rat, strain Fischer 344, males, in feed, site: any site (literature study), lesion: several types, types named in the paper, dosed 104 weeks, study length 104 weeks): negative (inactive)
carcinogen call (rat, strain Fischer 344, males, in feed, site: liver, lesion: one or several types, types not named, dosed 52 weeks, study length 52 weeks): negative (inactive)

CC(F)(Cl)Cl
TD50 (rat, strain Sprague-Dawley, males, inhaled, site: any site (literature study), lesion: several types, types named in the paper, dosed 105 weeks, study length 105 weeks): 5790 mg/kg/day
TD50 (rat, strain Sprague-Dawley, males, inhaled, site: testis, lesion: interstitial-cell adenoma, dosed 105 weeks, study length 105 weeks): 5260 mg/kg/day

ClC(Cl)C(Cl)Cl
TD50 (mouse, strain B6C3F1, females, by gavage, site: any site (literature study), lesion: several types, types named in the paper, dosed 78 weeks, study length 92 weeks): 37.2 mg/kg/day
TD50 (mouse, strain B6C3F1, females, by gavage, site: liver, lesion: hepatocellular adenoma + hepatocellular carcinoma + neoplastic nodule, dosed 78 weeks, study length 92 weeks): 35.4 mg/kg/day
TD50 (mouse, strain B6C3F1, females, by gavage, site: liver, lesion: hepatocellular carcinoma, dosed 78 weeks, study length 91 weeks): 35.8 mg/kg/day
TD50 (mouse, strain B6C3F1, females, by gavage, site: liver, lesion: hepatocellular carcinoma, dosed 78 weeks, study length 92 weeks): 35.4 mg/kg/day
TD50 (mouse, strain B6C3F1, females, by gavage, site: lung, lesion: alveolar/bronchiolar adenoma + alveolar/bronchiolar carcinoma, dosed 78 weeks, study length 92 weeks): 1910 mg/kg/day
TD50 (mouse, strain B6C3F1, males, by gavage, site: any site (literature study), lesion: several types, types named in the paper, dosed 78 weeks, study length 92 weeks): 38.7 mg/kg/day
TD50 (mouse, strain B6C3F1, males, by gavage, site: liver, lesion: hepatocellular adenoma + hepatocellular carcinoma + neoplastic nodule, dosed 78 weeks, study length 92 weeks): 41.6 mg/kg/day
TD50 (mouse, strain B6C3F1, males, by gavage, site: liver, lesion: hepatocellular carcinoma, dosed 78 weeks, study length 91 weeks): 45.4 mg/kg/day
TD50 (mouse, strain B6C3F1, males, by gavage, site: liver, lesion: hepatocellular carcinoma, dosed 78 weeks, study length 92 weeks): 41.6 mg/kg/day
TD50 (mouse, strain B6C3F1, males, by gavage, site: lung, lesion: alveolar/bronchiolar adenoma + alveolar/bronchiolar carcinoma, dosed 78 weeks, study length 92 weeks): 895 mg/kg/day
TD50 (rat, strain Osborne-Mendel, females, by gavage, site: any site (literature study), lesion: several types, types named in the paper, dosed 77 weeks, study length 110 weeks): 84.2 mg/kg/day (inactive)
carcinogen call (rat, strain Osborne-Mendel, males, by gavage, site: any site (literature study), lesion: several types, types named in the paper, dosed 77 weeks, study length 110 weeks): negative (inactive)
TD50 (rat, strain Osborne-Mendel, males, by gavage, site: liver, lesion: hepatocellular adenoma + hepatocellular carcinoma + neoplastic nodule, dosed 77 weeks, study length 110 weeks): 624 mg/kg/day
